Paper PMC6213047, “Design of Antibacterial Agents: Alkyl Dihydroxybenzoates against Xanthomonas citri subsp. citri” (International Journal of Molecular Sciences, 2018)
Values after ≈ are worked out from the molar mass of the structure shown. Read-outs that look alike come from different tables or passages of the source.

Assays:
[1] = test system: Xcc cells membrane integrity; experiment: Cellular membrane permeability of Xcc, Live/Dead BacLight kit; assay type: cell-based, Xanthomonas citri subsp. citri; settings: compounds at ¼ MIC, 15 min; nisin as positive control
Procedure: Membrane integrity was measured by using the commercial assay Live/Dead BacLight® bacterial viability kit (Invitrogen, Carlsbad, CA, USA). We observed cells with intact membrane in fluorescent blue (SYTO 9) and cells with disturbance or affected membrane integrity in red or pink (propidium iodide). The data analyses were plotted as the percentage of cells permeated by propidium iodide (Figure 2).
Phase contrast microscopy was used to observe changes in cell shape and signs of cell division alteration using an objective lens with a magnification of 100×. To evaluate the Xcc cells’ membrane integrity, the BacLight® kit was used. Mixtures of SYTO 9 dyes and propidium iodide (PI). SYTO 9 (blue) can stain nucleic acids in general—with intact or damaged membranes. On the other hand, PI (red) penetrates only the bacteria with damaged membranes, causing overlap in the fluorescence of SYTO 9. Therefore, using a mixture of the dyes, the bacteria with disturbed cell membranes are stained in fluorescent red and the intact cell membranes are stained in fluorescent blue. […] Cellular immobilization was performed on slides containing 1% agarose gel in 0.85% saline buffer. The slides were prepared with 1.0 mL of the agarose solution, which was dispersed in optical microscopy slides and on each slide another slide was placed so that the gel continued like a thin film and was of homogeneous height. The slides were dried at room temperature for approximately 20 min and opened at the time of use, when 10 μL of the cell suspension was deposited in the center and covered with the cover slip. The cells were visualized using the Olympus BX-61 optical microscope equipped with OrcaFlash 2.8 monochrome camera (Hamamatsu, Shizuoka, Japan). Cell Sensation software v11 (Olympus) was used to document and analyze the images.

[2] = test system: X. citri subsp. citri strain 306 (IBSBF 1594); settings: anti-Xcc, previous study ref 25; cited from earlier work
[3] = test system: X. citri subsp. citri strain 306 (IBSBF 1594); experiment: MIC by Resazurin Microtiter Assay (REMA); assay type: cell-based, Xanthomonas citri subsp. citri; settings: REMA, NYG medium, 29 °C, 12 h
Procedure: The antibacterial potential of carboxylic acids and their esters were compared to copper oxychloride (a commercial active often used to combat citrus canker). Minimal inhibitory concentration (MIC) values were determined by REMA assay, which measures cellular respiratory activity.
The antibacterial activity of alkyl dihydroxybenzoates and the determination of minimum inhibition concentration (MIC) were performed by the fluorimetric method Resazurin Microtiter Assay (REMA) with some modifications. An overnight culture of X. citri subsp. citri strain 306 (IBSBF 1594) was grown in 20 mL in Nitrogen Yeast Glycerol (NYG) at 29 °C in constant agitation of 180–200 rpm. After 12 h, the Xcc inoculum was dispersed in NYG medium and distributed into a 96 well microtiter plate to a final volume of 100 μL per well (10^5 CFU per well). Stock solutions of tested compounds at 10 mg mL^−1 were prepared in dimethyl sulfoxide (DMSO) and dispersed in NYG medium to obtain 1% DMSO and the final compound concentration range of 0.78–100 μg mL^−1. The negative control was constituted of 100 μL culture medium. In addition, the copper oxychloride was tested as a comparison to alkyl dihydroxybenzoates and kanamycin (20 μg mL^−1), which was used as a control antibiotic. The plate was subsequently incubated at 29 °C for 12 h, and 15 μg mL^−1 freshly prepared resazurin solution in water was added to each well, and the plate was incubated for 2 h. The fluorescence was determined on a Synergy H1 (BioTek, Winooski, VT, USA) microplate reader using the excitation and emission filters at wavelengths of 530 and 590 nm respectively. After the REMA assay, the minimum bactericidal concentration (CBM) assay was performed using a 96-pin stainless steel plate replicator, accurately transferring the wells from the REMA plate to Petri dishes Petri dishes were incubated in oven B.O.D. at 29 °C for 24 to 48 h. The experiments were performed in triplicate.

[4] = test system: HaCaT (human keratinocyte cell line); experiment: Cytotoxicity MTT assay, HaCaT; assay type: cell-based; settings: MTT; for IC50: 24 h treatment, read-out: IC50 HaCaT
Procedure: (§1) This test is based on the reduction of 3-(4,5-dimethyl-2-thiazolyl)-2,5-diphenyl-2-tetrazole bromide by viable cells, with formation of violet insoluble formazan crystals. Five cell lines were used in order to evaluate the cytotoxic effect of the compounds as a whole.
(§2) The cytotoxicity of compounds 4, 16, 28 and copper oxychloride was determined by MTT assay. The cell lines used were HaCaT (human keratinocyte cell line—CLS 300493), Huh-7.5 (human hepatoma cell line—ATCC® PTA-8561), MRC-5 (human lung fibroblast cell line—ATCC CCL-171), VERO (monkey kidney epithelial cell line—ATCC® CCL81) and ACHN (human renal adenocarcinoma cell line—ATCC® CRL1611). The cells were cultured in appropriate medium recommended by the American Type Culture Collection.
(§3) The assay was performed with the concentration of 10^4 cells for both cell lines, distributed in 96-well plates and incubated at 37 °C in a 5% CO2 controlled atmosphere oven for 24 h. After the incubation period, the cells were treated with the compounds with a range of 1.56–200 μmol L^−1 and incubated for 24 h. The supernatant was removed, then 100 μL of 3-(4,5-dimethyl-2-thiazolyl)-2,5-diphenyl-2H-tetrazolium (MTT) salt at 1 mg mL^−1 diluted in DMEM medium (Gibco Life Technologies, Gaithersburg, MD, USA) was added and incubated for 30 min. Subsequently, the MTT was removed, then 100 μL of DMSO under agitation for 5 min at 60 rpm was added. The plates were read at 570 nm in a FLUOstar Omega/BMG LABTECH plate reader, Offenburg, BW, DE. We carried out the experiments in triplicate and three independent events for statistical analysis (GraphPad Software, San Diego, CA, USA). The MTT assay is based on the tetrazolium salt (yellow-colored) reduction to formazan (purple-colored) by metabolically active cells.

[5] = test system: Huh-7.5 (human hepatoma cell line); experiment: Cytotoxicity MTT assay, Huh-7.5; assay type: cell-based; settings: MTT; for IC50: 24 h treatment, read-out: IC50 Huh-7,5
Procedure: as §1, §2, §3

[6] = test system: MRC-5 (human lung fibroblast cell line); experiment: Cytotoxicity MTT assay, MRC-5; assay type: cell-based; settings: MTT; for IC50: 24 h treatment, read-out: IC50 MRC-5
Procedure: as §1, §2, §3

[7] = test system: VERO (monkey kidney epithelial cell line); experiment: Cytotoxicity MTT assay, VERO; assay type: cell-based; settings: MTT; for IC50: 24 h treatment, read-out: IC50 VERO
Procedure: as §1, §2, §3

[8] = test system: ACHN (human renal adenocarcinoma cell line); experiment: Cytotoxicity MTT assay, ACHN; assay type: cell-based; settings: MTT; for IC50: 24 h treatment, read-out: IC50 ACHN
Procedure: as §1, §2, §3

[9] = test system: Xanthomonas citri subsp. citri; experiment: Growth curve of Xcc (OD 600 nm); assay type: cell-based; settings: MIC and ½ MIC, 72 h
Procedure: According to the growth curves of the positive control (PC) and vehicle control (DMSO), it was observed that Xcc reaches the maximum growth phase in a period of 15 h. […] The early growth inhibition (lag phase), which happens in the first hours of contact (period of the first cellular divisions) can be a dynamic process. […] This can be explained because the compounds have bacteriostatic action; that is, as the time passes, the cells become able to recover and restart doubling. Another important finding is that the lag phase consists in the cell adaptation to the new medium conditions and the bacterial population is smaller in relation to the exponential phase facilitates the action of the compounds in the first hours (Figure 1).
An isolated colony of Xanthomonas citri subsp. citri was inoculated in NYG medium for 12 h at 29 °C. After this, the optical density (OD 600 nm) was measured and adjusted to ~0.1. […] Optical density reading was measured on a Synergy H1-BioTek plate reader every 30 min for 72 h. The growth curves were plotted with GraphPad Prism software. At the same time, the degradation assay was performed, solubilizing the compounds in DMSO, which were later incorporated in NYG medium. Later, we scanned the compounds to measure the absorbance values from 210 to 700 nm, and the maximum lambda value of each compound was selected after scanning. After that, punctual readings were carried out every 30 min for 72 h.

[10] = 24 h, unit as in text for copper oxychloride

Row | Compound | percentage of cells permeated by propidium iodide [1] | MIC [2] | MIC [3] | MIC ([3]; read-out: MIC in μM) | IC50 [4] | IC50 [5] | IC50 [6] | IC50 [7] | IC50 [8] | IC50 HaCaT [4, 10] | IC50 Huh-7.5 [5, 10] | IC50 MRC-5 [6, 10] | IC50 VERO [7, 10] | IC50 ACHN [8, 10] | effect on Xcc growth curve [9]
1 | nisin [reference compound] | 79.47% | – | – | – | – | – | – | – | – | – | – | – | – | – | –
2 | CCCCCCCOC(=O)c1cc(O)c(O)c(O)c1 [heptyl gallate] | – | 116 µM (≈ 31.1 µg/mL) | – | – | – | – | – | – | – | – | – | – | – | – | –
3 | NC[C@H]1O[C@H](O[C@H]2[C@H](O)[C@@H](O[C@H]3O[C@H](CO)[C@@H](O)[C@H](N)[C@H]3O)[C@H](N)C[C@@H]2N)[C@H](O)[C@@H](O)[C@@H]1O [Kanamycin, kanamycin, reference compound] | – | – | 19.9 µg/mL | 40 µM | > 200 µM | > 200 µM | > 200 µM | > 200 µM | > 200 µM | – | – | – | – | – | –
4 | [Cl-].[Cu+2].[Cu+2].[OH-].[OH-].[OH-] [copper oxychloride, reference compound] | – | – | 43.1 µg/mL | – | > 200 µM | > 200 µM | > 200 µM | > 200 µM | > 200 µM | above 200 μg mL^−1 | above 200 μg mL^−1 | above 200 μg mL^−1 | above 200 μg mL^−1 | above 200 μg mL^−1 | inactive
